According to the NIST ThermoML archive (doi:10.1021/je4004299):
Numbers after ± are expanded uncertainties.

Conditions: for surface tension liquid-gas: Pendant drop shape; for mass density: 101.33 kPa, Liquid, Vibrating tube method

Compound | surface tension liquid-gas (298.15 K) | mass density (298.15 K) | surface tension liquid-gas (303.15 K) | mass density (303.15 K) | surface tension liquid-gas (313.15 K) | mass density (313.15 K) | surface tension liquid-gas (323.15 K) | mass density (323.15 K) | surface tension liquid-gas (333.15 K) | mass density (333.15 K) | surface tension liquid-gas (343.15 K) | mass density (343.15 K)
CCCCn1cc[n+](C)c1.NCC(=O)[O-] [1-butyl-3-methylimidazolium glycinate] | 54.5 ± 0.6 mN/m | 1128.47 ± 8 kg/m3 | 53.6 ± 0.6 mN/m | 1125.91 ± 8 kg/m3 | 51.9 ± 0.6 mN/m | 1119.35 ± 8 kg/m3 | 50.5 ± 0.5 mN/m | 1112.78 ± 8 kg/m3 | 48.4 ± 0.5 mN/m | 1107.1 ± 8 kg/m3 | 46.8 ± 0.5 mN/m | 1100.5 ± 8 kg/m3
CCCCn1cc[n+](C)c1.O=C([O-])CO [1-butyl-3-methylimidazolium glycolate] | 49.7 ± 0.5 mN/m | 1129.32 ± 8 kg/m3 | 49.2 ± 0.5 mN/m | 1125.95 ± 8 kg/m3 | 48.4 ± 0.5 mN/m | 1118.97 ± 8 kg/m3 | 47.6 ± 0.5 mN/m | 1111.78 ± 8 kg/m3 | 46.8 ± 0.5 mN/m | 1104.3 ± 8 kg/m3 | 46.1 ± 0.5 mN/m | 1097.73 ± 8 kg/m3
CC(O)C(=O)[O-].CCCCn1cc[n+](C)c1 [1-butyl-3-methylimidazolium lactate] | 42.7 ± 0.5 mN/m | 1100.2 ± 8 kg/m3 | 42.3 ± 0.5 mN/m | 1096.63 ± 8 kg/m3 | 41.9 ± 0.5 mN/m | 1089.79 ± 8 kg/m3 | 41.3 ± 0.5 mN/m | 1083.17 ± 8 kg/m3 | 40.6 ± 0.5 mN/m | 1076.42 ± 8 kg/m3 | 40 ± 0.5 mN/m | 1069.75 ± 8 kg/m3
CCCC[n+]1ccn(C)c1.O=C([O-])c1ccccc1 [3-butyl-1-methylimidazolium benzoate] | 40.1 ± 0.5 mN/m | 1105.25 ± 8 kg/m3 | 39.7 ± 0.5 mN/m | 1102.19 ± 8 kg/m3 | 39.1 ± 0.4 mN/m | 1095.87 ± 8 kg/m3 | 38.7 ± 0.4 mN/m | 1089.66 ± 8 kg/m3 | 38.3 ± 0.4 mN/m | 1083.46 ± 8 kg/m3 | 37.8 ± 0.4 mN/m | 1077.22 ± 8 kg/m3
